# Counter-ions that a name gives are not always drawn.
# How the values were obtained:
# [1] = system: vascular permeability in rat skin; experiment: Rat skin permeability, in vivo (LTE4-induced skin wheal); design: species or system rats; conditions: for Rat Skin Permeability % Inhibition (10mg/kg iv): Table II, LTE4 wheal; for reduction in the skin wheal size: 10 mg/kg i.v.
# Procedure: In this model the ability of LTE4 to increase vascular permeability in rat skin was utilized. Anesthetized rats, pretreated for 30 minutes with an antihistamine pyrilamine maleate, 50 mg/kg i.p. and a serotonin antagonist, methyl- […] maleate (4 mg/kg i.p.), were injected intradermally with a standard dose of LTE4 which gave a maximum wheal (in 0.05 ml saline). After introduction of test drug (at 10 mg/kg i.v.) the animals were immediately treated intravenously with Evans blue dye i.v. (0.5%) in the tail vein resulting in the formation of a skin wheal. Thirty minutes later the animals were sacrificed and the skin wheal size was measured. The average response in 5 animals (4 intradermal injections per animal) treated with test compound was compared to that obtained in a similar group of control animals to determine the percent inhibition by the drug.
# [2] = system: Guinea Pig Bronchoconstriction; experiment: Guinea pig bronchoconstriction, in vivo (leukotriene E4 challenge); design: species or system guinea pigs; conditions: for Guinea Pig Broncho-constriction % Inhibition (10 mg/kg i.v.): Table II; for Guinea Pig Broncho-constriction % Inhibition (10 mg/kg i.v.) / inhibition: leukotriene E4 challenge; for inhibition: 10 mg/kg, i.v.; for oral activity: orally 100 mg/kg, 2 hours prior to challenge with leukotriene E4
# Procedure: Male guinea pigs (Hostley strain) weighing 300 to 450 grams are anesthetized with urethane (2 g/kg) intraperitoneally and a polyethylene cannula is inserted into the jugular vein for intravenous drug administration. Tracheal pressure is recorded from a cannula inserted in the trachea and connected to a Statham pressure transducer. Respiration is paralyzed with succinyl choline (1.2 mg/kg, i.v.) and the animals are mechanically respirated (Howard rodent respirator) at 40 breaths/minute and 2.5 ml tidal volume. Two minutes thereafter, propranolol (0.1 mg/kg, i.v.) is administered. Five minutes later, the animals are pretreated intravenously for 30 seconds (at 10 mg/kg) with test drug or control vehicle. The animals are subsequently challenged with a maximally constrictory dose of leukotriene E4 also administered intravenously. The change (cm H20) between pre and peak ventilatory pressure readings is averaged for three control animals and five drug treated animals. The percent inhibition is calculated from the following formula: [formula]
# For determination of oral activity spontaneously breathing animals are pretreated orally with drugs (100 mg/kg) for 2 hours (at 100 mg/kg) prior to challenge with leukotriene E4. […] When tested orally in this assay the two compounds of the invention were active. Results obtained with representative compounds of the present invention in this assay are summarized hereafter in Table II.
# [3] = system: Rat Passive Cutaneous Anaphylaxis; experiment: Passive cutaneous anaphylaxis (PCA) assay; format: in vivo, rats; conditions: for ED50: Rattus norvegicus, po, doses administered orally, read-out: Rat PCA Test ID50
# Procedure: Male Sprague-Dawley rats obtained from Charles River Breeding Laboratories were used in the PCA assay. Two methods were used to prepare serum IgE antibody which is specific for egg albumin. In the first method homocytotropic antibody was obtained by injecting 180 to 200 g rats with 1.0 mg of egg albumin (Difco Laboratories, Detroit, Michigan) intramuscularly and 6.4 x 10^10 organisms of Bordetella pertussis vaccine (Eli Lilly and Co., Indiana- polis, Ind.) intraperitoneally. Serum collected from each animal 18-20 days after sensitization was pooled, separated into 1 ml aliquots, and kept frozen until further use. In the second method, rats weighing 150-200 g were immunized by the intraperitoneal injection of 0.5 ml of Bordetella pertussis vaccine (Cannaught Laboratories, Willowdale, Toronto, Canada, 20 optical units/ml) and 100 μg of egg albumin (Nutritional Biochemicals Corp., Cleveland. Ohio). Sixteen days later, Nipostrongylus brasi- […] (3000 larvae/0.1 ml) was administered subcutaneously, and on the 21st day, 10 μg of egg albumin in 0.5 ml of normal saline was administered intraperitoneally. On the 30th day, blood samples were collected by heart puncture; the serum was separated by centrifugation and refrigerated overnight at 5°C. After a 24 hour period, the samples were assayed for antibody activity by the passive cutaneous anaphylaxis method. Those serum samples which produced an average wheal diameter of 3 mm or greater following an intradermal injection of 0.05 ml of a 1:50 dilution of serum in normal saline were pooled, divided into aliquots, and kept frozen until further use. […] The passive cutaneous anaphylaxis assay was carried out in rats weighing 190-220 g in a manner similar to that of Goose and Blair (J. Goose and A.M.J.N. Blair, Immunology, 16, 749 [1969]). Rat IgE antiovalbumin in serum was prepared as described above. The IgE antiserum was titered with normal saline so that injections of 0.05 ml produced skin wheal diameters which averaged 7 to 10 mm. After a 24 hour sensitization period, 1 ml of an aqueous solution containing a mixture of 8 mg of egg albumin (Nutritional Biochemical Corp.. Cleveland, Ohio) and 5 mg of Evans blue dye ([…] Chemical Co., Inc., Harriman, N.Y.) was administered intravenously to each rat. Forty minutes after challenge, each animal was sacrificed by cervical dislocation, and the dorsal skin was removed for examination. The long and short axes of the blued area were measured on the inner surface of the skin with a metric vernier caliper (VWR Scientific Division of Univar, Rochester, N.Y.), and the average diameter was determined for each reaction. […] The procedure was usually conducted on five animals in the control and each of the treatment groups. Statistical analysis of the test results was conduced by the Student's t test of control vs. various treatments. The ID50 and 95% limits were determined by a modification of the Berkson minimum logic chi square method (J. Berkson, J. Am. Stat. Assoc., 48, 565 [1953]).
# TXA2 synthase = target: T1, TXA2 synthase (Homo sapiens, UniProt P24557); experiment: Thromboxane synthase inhibition, in vitro; format: biochemical; conditions: at 10^-7M; microsomal fractions from human platelets; read-out: TXA2Synthase Inhibition (% at 10^-7M)
# T1 construct: using microsomal fractions from human platelets as enzyme source; from tissue; host or cells: human platelets (microsomal fraction)
# T1 sequence (P24557 1-533): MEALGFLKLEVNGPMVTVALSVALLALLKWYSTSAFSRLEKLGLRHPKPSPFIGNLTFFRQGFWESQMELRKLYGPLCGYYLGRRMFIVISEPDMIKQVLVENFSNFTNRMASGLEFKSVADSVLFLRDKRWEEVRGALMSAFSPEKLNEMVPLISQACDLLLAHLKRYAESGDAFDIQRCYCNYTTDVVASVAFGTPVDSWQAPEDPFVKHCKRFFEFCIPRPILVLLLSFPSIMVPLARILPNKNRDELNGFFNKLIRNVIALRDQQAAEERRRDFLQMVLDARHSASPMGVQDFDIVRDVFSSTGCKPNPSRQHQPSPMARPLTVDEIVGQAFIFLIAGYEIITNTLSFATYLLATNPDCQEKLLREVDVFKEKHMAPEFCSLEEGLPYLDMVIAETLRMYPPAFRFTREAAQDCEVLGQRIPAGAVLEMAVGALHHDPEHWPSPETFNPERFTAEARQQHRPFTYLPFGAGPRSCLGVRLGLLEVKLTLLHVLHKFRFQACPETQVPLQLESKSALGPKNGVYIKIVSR
# Procedure: TXA2 synthase activity is measured by following the conversion of ^14C-prostaglandin endoperoxide (PGH2) to ^14C-thromboxane A2 (TXA2) using microsomal fractions from human platelets as enzyme source. In the aqueous incubation medium, the TXA2 decomposes rapidly into TXB2. The amount of TXA2 synthase is adjusted so that under the conditions of the assay approximately 80-90% of the substrate, PGH2, is converted to product in control tubes. To prepare ^14C-PGH2, ^14C-AA (50-60 mCi/mmole: Rose Chem.) is incubated with sheep seminal vesicular gland microsomes for 1.5 minutes at 37°C and then the ^14C-PGH2 is extracted with diethylether, purified on columns of Sephadex LH-20 or silicic acid, and stored in acetone at -70°C. Incubations are done as follows. Sufficient ^14C-PGH2 to yield a final substrate concentration of 10 µM (30,000 cpm) is added to the incubation tubes and then the acetone is removed under nitrogen. The tubes are placed in an ice bath and then 215 1 of ice cold phosphate buffered saline, 10 1 of ethanol (control) or of test drug in ethanol, and 25 1 of the microsomal suspension are added with mixing in that order as rapidly as possible. The tubes are incubated at 22°C for 2 minutes, the reaction is stopped and then the radioactive products and the uncoverted PGH2 are extracted and analyzed by thin layer chromatography. […] The amount of ^14C-PGH2 converted to products was used as a measure of TXA2 synthase activity. Inhibitors were tested initially at a final concentration of 100 µM. Results obtained with representative compounds of the present invention in this assay are summarized hereafter in Table I.
# [4] = system: vascular permeability in rat skin; experiment: Rat skin permeability, in vivo (LTE4-induced skin wheal); design: species or system rats; conditions: for oral activity: tested orally
compound,measurement,setting,value
CC(C)c1ccc2nc3sc(C(=O)N(C)CCCCc4cccnc4)cn3c(=O)c2c1,Rat Skin Permeability % Inhibition (10mg/kg iv),[1],72%
same,Guinea Pig Broncho-constriction % Inhibition (10 mg/kg i.v.),[2],Inactive
"CCN(CC)CCOC(=O)c1cn2c(=O)c3cc(SC)ccc3nc2s1.Cl [Example 17, 7-(Methylthio)-5-oxo-5H-thiazolo[2,3-b]quinazoline-2-carboxylic acid (2-diethylaminoethyl) ester hydrochloride]",Rat PCA Test (% Inhibition) 16 mg/kg ip,[3],52%
same,Rat PCA Test (% Inhibition) 32 mg/kg po,[3],100%
same,ED50,[3],2.85 mg/kg
"CC(C)c1cc(C(C)C)c2nc3sc(C(=O)NCCCCc4cccnc4)cn3c(=O)c2c1 [the 1st table, row 5, 7,9-bis(1-methylethyl)-5-oxo-N-[4-(3-pyridinyl)butyl]-5H-thiazolo[2,3-b]quinazoline-2-carboxamide]",inhibition at 0.1 µM,TXA2 synthase,63%
"CC(C)c1ccc2nc3sc(C(=O)NCCCCc4cccnc4)cn3c(=O)c2c1 [Example 3, 7-(1-Methylethyl)-5-oxo-N-[4-(3-pyridinyl)butyl]-5H-thiazolo[2,3-b]quinazoline-2-carboxamide]",reduction in the skin wheal size,[1],35%
same,Rat Skin Permeability % Inhibition (10mg/kg iv),[1],35%
same,oral activity,[4],active
same,inhibition,[2],68%
same,Guinea Pig Broncho-constriction % Inhibition (10 mg/kg i.v.),[2],68%
same,oral activity,[2],active
"CC(C)c1ccc2nc3sc(C(=O)NCCCCc4cccnc4)cn3c(=O)c2c1 [the 1st table, row 4, 7-(1-Methylethyl)-5-oxo-N-[4-(3-pyridinyl)butyl]-5H-thiazolo[2,3-b]quinazoline-2-carboxamide]",inhibition at 0.1 µM,TXA2 synthase,73%
"CC(C)c1ccc2nc3sc(C(=O)NCCCCn4ccnc4)cn3c(=O)c2c1 [the 1st table, row 8]",inhibition at 0.1 µM,TXA2 synthase,67%
CCC(C)c1ccc2nc3sc(C(=O)NCCN(CC)CC)cn3c(=O)c2c1 (stereo not shown),Rat PCA Test (% Inhibition) 16 mg/kg ip,[3],21%
"CCCc1c(OCC(O)COc2ccc3c(=O)cc(C(=O)O)oc3c2CCC)ccc(C(C)=O)c1O (stereo not drawn) [7-[3-(4-acetyl-3-hydroxy-2-propylphenoxy) -2-hydroxypropoxy]-4-oxo-8-propyl-4H-l-benzopyran-2-carboxylic acid, reference compound]",reduction in the skin wheal size,[1],88%
same,oral activity,[4],inactive
same,inhibition,[2],98%
same,oral activity,[2],inactive
"CCN(CC)CCOC(=O)c1cn2c(=O)c3cc(C(C)C)ccc3nc2s1 [7-(1-Methylethyl)-5-oxo-5H-thiazolo[2,3-b]quinazoline-2-carboxylic acid(2-diethylaminoethyl) ester hydrochloride]",Rat PCA Test (% Inhibition) 16 mg/kg ip,[3],100%
same,Rat PCA Test (% Inhibition) 32 mg/kg po,[3],100%
same,ED50,[3],0.45 mg/kg
"CC(C)c1ccc2nc3sc(C(=O)NCCCCn4ccnc4)cn3c(=O)c2c1 [Example 6, N-[4-(1H-Imidazol-1-yl)butyl]-7-(1-methylethyl)-5-oxo-5H-thiazolo[2,3-b]quinazoline-2-carboxamide dihydrochloride 0.45 molar hydrate]",reduction in the skin wheal size,[1],61%
same,Rat Skin Permeability % Inhibition (10mg/kg iv),[1],61%
same,Rat Skin Permeability ID50,[4]; iv,10 mg/kg
same,Rat Skin Permeability ID50,[4]; po,55 mg/kg
same,oral activity,[4],active
same,inhibition,[2],85%
same,ED50,"[2]; Cavia porcellus, po, read-out: Guinea Pig Broncho-constriction ID50",51 mg/kg
same,Guinea Pig Broncho-constriction % Inhibition (10 mg/kg i.v.),[2],85%
same,oral activity,[2],active
"CCN(CC)CCNC(=O)c1cn2c(=O)c3cc(C(C)C)cc(C(C)C)c3nc2s1 [7,9-Bis(1-methylethyl)-N-[2-(diethylamino)ethyl] -5-oxo-5H--thiazolo[2,3-b]quinazoline-2-carboxamide hydrochloride]",Rat PCA Test (% Inhibition) 16 mg/kg ip,[3],31%
same,Rat PCA Test (% Inhibition) 32 mg/kg po,[3],27%
CC(C)c1ccc2nc3sc(C(=O)NCCCCCCc4cccnc4)cn3c(=O)c2c1,inhibition at 0.1 µM,TXA2 synthase,36%
CCN(CC)CCOC(=O)c1cn2c(=O)c3cc(OC)ccc3nc2s1,Rat PCA Test (% Inhibition) 16 mg/kg ip,[3],100%
same,Rat PCA Test (% Inhibition) 32 mg/kg po,[3],100%
same,ED50,[3],1.31 mg/kg
"CC(C)c1cc(C(C)C)c2nc3sc(C(=O)NCCCCc4cccnc4)cn3c(=O)c2c1 [the 2nd table, row 8, 7,9-bis(1-methylethyl)-5-oxo-N-[4-(3-pyridinyl)butyl]-5H-thiazolo[2,3-b]quinazoline-2-carboxamide]",Rat Skin Permeability % Inhibition (10mg/kg iv),[1],38%
CCN(CC)CCNC(=O)c1cn2c(=O)c3cc(CC(C)C)ccc3nc2s1,Rat PCA Test (% Inhibition) 16 mg/kg ip,[3],31%
CCN(CC)CCNC(=O)c1cn2c(=O)c3cc(C(C)C)ccc3nc2s1,Rat PCA Test (% Inhibition) 32 mg/kg po,[3],50%

# Reference: patent publication EP0142057A2, “Thiazoloquinazoline derivatives, their preparation and pharmaceutical compositions containing same” (F. HOFFMANN-LA ROCHE AG, priority 1983, dated 1985)
